Experimental data: patent publication EP1061945B1, “USE OF VIP ANALOGUES FOR PREVENTING AND TREATING BRAIN DAMAGE IN HUMAN BABIES” (ASSISTANCE PUBLIQUE - HOPITAUX DE PARIS, priority 1998, dated 2002)
“Also recorded” adds a separate entry of the source. Bridge positions count the residues as written; N and C are the ends. Square brackets hold non-standard residues; d marks the D form. Peptide text beside a SMILES is read from it. Nle = CCCC[C@H](N)C(=O)O

System: lésions excitotoxiques induites par l'iboténate dans le cerveau de souris en développement
Experiment: Ibotenate-induced excitotoxic brain lesions in newborn mice (intracerebral ibotenate at JN or JN+5)
Assay type: in vivo
Text: Le modèle chez la souris obtenu par injection intracérébrale d'iboténate reproduit : • des lésions du cortex cérébral, semblables à celles observées chez le foetus humain entre 16 et 25 semaines de grossesse, lorsque l'iboténate est injecté le jour de la naissance (JN), • des lésions du cortex cérébral semblables aux lésions du nouveau-né humain à terme, lorsque l'injection d'iboténate est effectuée à JN + 5 et • des lésions de la substance blanche, semblables aux lésions du prématuré humain, lorsque l'iboténate est injecté à JN + 5.
Dans l'ensemble de ces figures : * = p<0,05, ** = p<0,01 (ANOVA + test de comparaison multiple de Dunnett par rapport aux contrôles (iboténate seul)).
Les souris sont préparées comme décrit dans J Clin. Investig. précité.
Le VIP est injecté par voie intracérébrale à raison de 1 µg (dose par animal) et les VIP cycliques ont été injectés par voie intrapéritonéale à raison de 10 µg (dose par animal).

[1] = ibotenate at JN+5, peptide by intracerebral route
[2] = ibotenate at JN+5, peptide by intraperitoneal route

Compound: CCCC[C@H](NC(=O)[C@H](CCC(N)=O)NC(=O)[C@H](CCCCN)NC(=O)[C@H](CCCNC(=N)N)NC(=O)[C@H](CC(C)C)NC(=O)[C@H](CCCCN)NC(=O)[C@@H](NC(=O)[C@H](Cc1ccc(O)cc1)NC(=O)[C@H](CC(N)=O)NC(=O)[C@H](CCC(=O)O)NC(=O)[C@@H](NC(=O)[C@H](Cc1ccccc1)NC(=O)[C@@H](NC(=O)[C@H](C)NC(=O)[C@H](CC(=O)O)NC(=O)[C@H](CO)NC(=O)[C@H](Cc1c[nH]cn1)NC(C)=O)C(C)C)[C@@H](C)O)[C@@H](C)O)C(=O)N[C@@H](C)C(=O)N[C@@H](C)C(=O)N[C@@H](CCCCN)C(=O)N[C@H]1CCCCNC(=O)C[C@@H](C(=O)N[C@@H](CC(C)C)C(=O)N[C@@H](CCCCN)C(=O)N[C@@H](CCCCN)C(=O)NCC(=O)NCC(=O)N[C@H](C(N)=O)[C@@H](C)O)NC(=O)[C@H](CC(N)=O)NC(=O)[C@H](CC(C)C)NC(=O)[C@H](Cc2ccc(O)cc2)NC1=O [SEQ ID NO:2] (Ac-HSDAVFTENYTKLRKQ[Nle]AAKKYLNDLKKGGT-NH2; lactam 21-25)
- delay of administration after the ibotenate injection within which the effects at JN+5 are observed (JN+5, peptide given after ibotenate): 8 à 12 heures
- taille des lésions corticales [1]: n'est significative que lorsque l'analogue cyclique du VIP de SEQ ID NO:2 est administré par voie parentérale; also recorded: une certaine protection du cortex cérébral
- taille des lésions de substance blanche [1]: diminution de la taille des lésions de substance blanche significative; also recorded: protège significativement la substance blanche
- taille des lésions corticales (ibotenate at JN+5, peptide by intraperitoneal (parenteral) route): significative; also recorded: une certaine protection du cortex cérébral, surtout en intrapéritonéale
- taille des lésions de substance blanche [2]: diminution de la taille des lésions de substance blanche significative; also recorded: activité significative; also recorded: protège significativement la substance blanche

Compound: CCCC[C@H](NC(=O)[C@H](CCCNC(=N)N)NC(=O)[C@H](CCCCN)NC(=O)[C@H](CCCNC(=N)N)NC(=O)[C@H](CC(C)C)NC(=O)[C@H](CCCCN)NC(=O)[C@@H](NC(=O)[C@H](Cc1ccc(O)cc1)NC(=O)[C@H](CC(N)=O)NC(=O)[C@H](CCC(=O)O)NC(=O)[C@@H](NC(=O)[C@H](Cc1ccccc1)NC(=O)[C@@H](NC(=O)[C@H](C)NC(=O)[C@H](CC(=O)O)NC(=O)[C@H](CO)NC(=O)[C@H](Cc1c[nH]cn1)NC(C)=O)C(C)C)[C@@H](C)O)[C@@H](C)O)C(=O)N[C@@H](C)C(=O)N[C@@H](C)C(=O)N[C@@H](CCCCN)C(=O)N[C@H]1CCCCNC(=O)C[C@@H](C(=O)N[C@@H](CC(C)C)C(=O)N[C@@H](CCCCN)C(=O)N[C@@H](CCCCN)C(=O)NCC(=O)NCC(=O)N[C@H](C(N)=O)[C@@H](C)O)NC(=O)[C@H](CC(N)=O)NC(=O)[C@H](CC(C)C)NC(=O)[C@H](Cc2ccc(O)cc2)NC1=O [SEQ ID NO:3] (Ac-HSDAVFTENYTKLRKR[Nle]AAKKYLNDLKKGGT-NH2; lactam 21-25)
- taille des lésions de substance blanche [2]: reproduit les effets neuroprotecteurs de l'analogue cyclique de VIP de SEQ ID NO:2
- taille des lésions corticales (ibotenate at JN, given at the same time, cyclic VIP intraperitoneal, 10 µg per animal): reproduit les effets neuroprotecteurs de l'analogue cyclique de VIP de SEQ ID NO:2
